Test results reported in ChEMBL document CHEMBL4138175, “Newly designed organotin(IV) carboxylates with peptide linkage: Synthesis, structural elucidation, physicochemical characterizations and pharmacological investigations” (Eur J Med Chem, 2018).
Calls of active or inactive are those of the source. The calls are words filed in the database; no cut-off is given here.

Assays:
NCI-H157 [1] = test: Cytotoxicity against human NCI-H157 cells at 100 uM after 48 hrs by sulforhodamine B assay; type: functional
NCI-H157 [2] = test: Cytotoxicity against human NCI-H157 cells at 10 uM after 48 hrs by sulforhodamine B assay; type: functional
NCI-H157 [3] = test: Cytotoxicity against human NCI-H157 cells at 1 uM after 48 hrs by sulforhodamine B assay; type: functional
NCI-H157 [4] = test: Cytotoxicity against human NCI-H157 cells at 0.1 uM after 48 hrs by sulforhodamine B assay; type: functional
Leishmania major [5] = test: Antileishmanial activity against Leishmania major promastigotes at 100 uM after 72 hrs by MTT assay relative to control; type: functional
Leishmania major [6] = test: Antileishmanial activity against Leishmania major promastigotes at 10 uM after 72 hrs by MTT assay relative to control; type: functional
Leishmania major [7] = test: Antileishmanial activity against Leishmania major promastigotes at 1 uM after 72 hrs by MTT assay relative to control; type: functional
Leishmania major [8] = test: Antileishmanial activity against Leishmania major promastigotes at 0.1 uM after 72 hrs by MTT assay relative to control; type: functional
Klebsiella pneumoniae [9] = test: Antibacterial activity against Klebsiella pneumoniae assessed as zone of inhibition after 24 to 48 hrs by well diffusion method; type: functional
Streptococcus pyogenes [10] = test: Antibacterial activity against Streptococcus pyogenes assessed as zone of inhibition after 24 to 48 hrs by well diffusion method; type: functional
[11] = test system: Staphylococcus epidermidis; test: Antibacterial activity against Staphylococcus epidermidis assessed as zone of inhibition after 24 to 48 hrs by well diffusion method; type: functional
Staphylococcus aureus [12] = test: Antibacterial activity against Staphylococcus aureus assessed as zone of inhibition after 24 to 48 hrs by well diffusion method; type: functional
Serratia marcescens [13] = test: Antibacterial activity against Serratia marcescens assessed as zone of inhibition after 24 to 48 hrs by well diffusion method; type: functional
Pseudomonas aeruginosa [14] = test: Antibacterial activity against Pseudomonas aeruginosa assessed as zone of inhibition after 24 to 48 hrs by well diffusion method; type: functional
Escherichia coli [15] = test: Antibacterial activity against Escherichia coli assessed as zone of inhibition after 24 to 48 hrs by well diffusion method; type: functional
Klebsiella pneumoniae [16] = test: Antibacterial activity against Klebsiella pneumoniae assessed as zone of inhibition by measuring activity index after 24 to 48 hrs by well diffusion method relative to penicillin G; type: functional, organism-based
Streptococcus pyogenes [17] = test: Antibacterial activity against Streptococcus pyogenes assessed as zone of inhibition by measuring activity index after 24 to 48 hrs by well diffusion method relative to tetracycline; type: functional, organism-based
Streptococcus pyogenes [18] = test: Antibacterial activity against Streptococcus pyogenes assessed as zone of inhibition by measuring activity index after 24 to 48 hrs by well diffusion method relative to penicillin G; type: functional, organism-based
Streptococcus pyogenes [19] = test: Antibacterial activity against Streptococcus pyogenes assessed as zone of inhibition by measuring activity index after 24 to 48 hrs by well diffusion method relative to ampicillin; type: functional, organism-based
Streptococcus pyogenes [20] = test: Antibacterial activity against Streptococcus pyogenes assessed as zone of inhibition by measuring activity index after 24 to 48 hrs by well diffusion method relative to amoxicillin; type: functional, organism-based
[21] = test system: Staphylococcus epidermidis; test: Antibacterial activity against Staphylococcus epidermidis assessed as zone of inhibition by measuring activity index after 24 to 48 hrs by well diffusion method relative to tetracycline; type: functional, organism-based
[22] = test system: Staphylococcus epidermidis; test: Antibacterial activity against Staphylococcus epidermidis assessed as zone of inhibition by measuring activity index after 24 to 48 hrs by well diffusion method relative to amoxicillin; type: functional, organism-based
Serratia marcescens [23] = test: Antibacterial activity against Serratia marcescens assessed as zone of inhibition by measuring activity index after 24 to 48 hrs by well diffusion method relative to penicillin G; type: functional
Serratia marcescens [24] = test: Antibacterial activity against Serratia marcescens assessed as zone of inhibition by measuring activity index after 24 to 48 hrs by well diffusion method relative to ampicillin; type: functional
Serratia marcescens [25] = test: Antibacterial activity against Serratia marcescens assessed as zone of inhibition by measuring activity index after 24 to 48 hrs by well diffusion method relative to amoxicillin; type: functional
Pseudomonas aeruginosa [26] = test: Antibacterial activity against Pseudomonas aeruginosa assessed as zone of inhibition by measuring activity index after 24 to 48 hrs by well diffusion method relative to tetracycline; type: functional, organism-based
Pseudomonas aeruginosa [27] = test: Antibacterial activity against Pseudomonas aeruginosa assessed as zone of inhibition by measuring activity index after 24 to 48 hrs by well diffusion method relative to penicillin G; type: functional, organism-based
Pseudomonas aeruginosa [28] = test: Antibacterial activity against Pseudomonas aeruginosa assessed as zone of inhibition by measuring activity index after 24 to 48 hrs by well diffusion method relative to amoxicillin; type: functional, organism-based
Escherichia coli [29] = test: Antibacterial activity against Escherichia coli assessed as zone of inhibition by measuring activity index after 24 to 48 hrs by well diffusion method relative to tetracycline; type: functional
DNA [30] = test: Binding affinity to single-stranded DNA (unknown origin) after 10 mins by UV-visible spectrometric method; type: nucleic-acid assay
NCI-H157 [31] = test: Cytotoxicity against human NCI-H157 cells after 48 hrs by sulforhodamine B assay; type: functional, cell-based
DNA [32] = test: Binding affinity to single-stranded DNA (unknown origin) assessed as red shift up to 72 uM after 10 mins by UV-visible spectrometric method; type: nucleic-acid assay
Klebsiella pneumoniae [33] = test: Antibacterial activity against Klebsiella pneumoniae assessed as zone of inhibition by measuring activity index after 24 to 48 hrs by well diffusion method relative to tetracycline; type: functional, organism-based
Klebsiella pneumoniae [34] = test: Antibacterial activity against Klebsiella pneumoniae assessed as zone of inhibition by measuring activity index after 24 to 48 hrs by well diffusion method relative to ampicillin; type: functional, organism-based
Klebsiella pneumoniae [35] = test: Antibacterial activity against Klebsiella pneumoniae assessed as zone of inhibition by measuring activity index after 24 to 48 hrs by well diffusion method relative to amoxicillin; type: functional, organism-based
Staphylococcus aureus [36] = test: Antibacterial activity against Staphylococcus aureus assessed as zone of inhibition by measuring activity index after 24 to 48 hrs by well diffusion method relative to tetracycline; type: functional, organism-based
Staphylococcus aureus [37] = test: Antibacterial activity against Staphylococcus aureus assessed as zone of inhibition by measuring activity index after 24 to 48 hrs by well diffusion method relative to penicillin G; type: functional, organism-based
Staphylococcus aureus [38] = test: Antibacterial activity against Staphylococcus aureus assessed as zone of inhibition by measuring activity index after 24 to 48 hrs by well diffusion method relative to ampicillin; type: functional, organism-based
Staphylococcus aureus [39] = test: Antibacterial activity against Staphylococcus aureus assessed as zone of inhibition by measuring activity index after 24 to 48 hrs by well diffusion method relative to amoxicillin; type: functional, organism-based
Pseudomonas aeruginosa [40] = test: Antibacterial activity against Pseudomonas aeruginosa assessed as zone of inhibition by measuring activity index after 24 to 48 hrs by well diffusion method relative to ampicillin; type: functional, organism-based
Escherichia coli [41] = test: Antibacterial activity against Escherichia coli assessed as zone of inhibition by measuring activity index after 24 to 48 hrs by well diffusion method relative to penicillin G; type: functional, organism-based
Escherichia coli [42] = test: Antibacterial activity against Escherichia coli assessed as zone of inhibition by measuring activity index after 24 to 48 hrs by well diffusion method relative to ampicillin; type: functional, organism-based
Escherichia coli [43] = test: Antibacterial activity against Escherichia coli assessed as zone of inhibition by measuring activity index after 24 to 48 hrs by well diffusion method relative to amoxicillin; type: functional, organism-based
[44] = test system: Staphylococcus epidermidis; test: Antibacterial activity against Staphylococcus epidermidis assessed as zone of inhibition by measuring activity index after 24 to 48 hrs by well diffusion method relative to penicillin G; type: functional, organism-based
[45] = test system: Staphylococcus epidermidis; test: Antibacterial activity against Staphylococcus epidermidis assessed as zone of inhibition by measuring activity index after 24 to 48 hrs by well diffusion method relative to ampicillin; type: functional, organism-based

Substance	Activity (NCI-H157 [1]) [%]	Activity (NCI-H157 [2]) [%]	Activity (NCI-H157 [3]) [%]	Activity (NCI-H157 [4]) [%]	Activity (Leishmania major [5]) [%]	Activity (Leishmania major [6]) [%]	Activity (Leishmania major [7]) [%]	Activity (Leishmania major [8]) [%]	inhibition zone (IZ) (Klebsiella pneumoniae [9])	inhibition zone (IZ) (Streptococcus pyogenes [10])	inhibition zone (IZ) [11]	inhibition zone (IZ) (Staphylococcus aureus [12])	inhibition zone (IZ) (Serratia marcescens [13]) [mm]	inhibition zone (IZ) (Pseudomonas aeruginosa [14])	inhibition zone (IZ) (Escherichia coli [15])	Activity index [21]	Activity index (Serratia marcescens [23])	Activity index (Serratia marcescens [24])	Activity index (Serratia marcescens [25])	Activity (NCI-H157 [31])	also measured
(2,2'-Bipyridine) trimethylstannyl 2-(4-methoxy-2-nitrophenylcarbamoyl)benzoate	63.2	59.9	57.8	56.7	56.6	50.9	44.3	39.2	inactive	inactive	23.3 mm	19.3 mm	19.3	20.3 mm	17.7 mm	2.33	2.42	2.42	3.22	Dose-dependent effect	Activity_index (Klebsiella pneumoniae [16]): inactive; Activity_index (Streptococcus pyogenes [17]): inactive; Activity_index (Streptococcus pyogenes [18]): inactive; Activity_index (Streptococcus pyogenes [19]): inactive; Activity_index (Streptococcus pyogenes [20]): inactive; Activity index [22]: 11.7; Activity index (Pseudomonas aeruginosa [26]): 3.39; Activity index (Pseudomonas aeruginosa [27]): 3.39; Activity index (Pseudomonas aeruginosa [28]): 3.39; Activity index (Escherichia coli [29]): 8.83; K (DNA [30]): 1.2 ×10⁴ /M; Activity (DNA [32]): < 3 nm
Tributylstannyl 2-(4-methoxy-2-nitrophenylcarbamoyl)benzoate	38.2	37.7	35.6	32.1	66.9	63.3	57.4	52.6	15 mm	inactive	16 mm	inactive	12.7	15.7 mm	1.56 mm	1.6	1.58	1.58	2.11	Dose-dependent effect	Activity index (Klebsiella pneumoniae [33]): 1.07; Activity index (Klebsiella pneumoniae [34]): 2.5; Activity index (Klebsiella pneumoniae [35]): 2.5; Activity_index (Streptococcus pyogenes [17]): inactive; Activity_index (Streptococcus pyogenes [18]): inactive; Activity_index (Streptococcus pyogenes [19]): inactive; Activity_index (Streptococcus pyogenes [20]): inactive; Activity index [22]: 8; Activity_index (Staphylococcus aureus [36]): inactive; Activity_index (Staphylococcus aureus [37]): inactive; Activity_index (Staphylococcus aureus [38]): inactive; Activity_index (Staphylococcus aureus [39]): inactive; Activity index (Pseudomonas aeruginosa [26]): 2.61; Activity index (Pseudomonas aeruginosa [27]): 2.61; Activity index (Pseudomonas aeruginosa [28]): 2.61; Activity index (Escherichia coli [29]): 0.78; K (DNA [30]): 7.6 ×10³ /M; Activity (DNA [32]): < 3 nm
Dioctylstannanediyl bis 2-(4-methoxy-2-nitrophenylcarbamoyl)benzoate	63.7	59.1	54.3	48.9	58.8	55.2	47.1	42.9	22.3 mm	12 mm	11.3 mm	inactive	5	inactive	inactive	1.13	0.63	0.63	0.84	Dose-dependent effect	Activity index (Klebsiella pneumoniae [33]): 1.59; Activity index (Klebsiella pneumoniae [34]): 3.72; Activity index (Klebsiella pneumoniae [35]): 3.72; Activity index [22]: 5.67; Activity_index (Staphylococcus aureus [36]): inactive; Activity_index (Staphylococcus aureus [37]): inactive; Activity_index (Staphylococcus aureus [38]): inactive; Activity_index (Staphylococcus aureus [39]): inactive; Activity_index (Pseudomonas aeruginosa [40]): inactive; Activity_index (Escherichia coli [41]): inactive; Activity_index (Escherichia coli [42]): inactive; Activity_index (Escherichia coli [43]): inactive
Divinylstannanediyl bis 2-(4-methoxy-2-nitrophenylcarbamoyl)benzoate	64.3	61	58.3	55.4	60.9	55.4	48.8	43.3	inactive	inactive	14.2 mm	inactive	11	inactive	inactive	1.42	1.37	1.37	1.84	Dose-dependent effect	Activity_index (Klebsiella pneumoniae [16]): inactive; Activity_index (Streptococcus pyogenes [17]): inactive; Activity_index (Streptococcus pyogenes [18]): inactive; Activity_index (Streptococcus pyogenes [19]): inactive; Activity_index (Streptococcus pyogenes [20]): inactive; Activity index [22]: 7.11; Activity_index (Staphylococcus aureus [36]): inactive; Activity_index (Staphylococcus aureus [37]): inactive; Activity_index (Staphylococcus aureus [38]): inactive; Activity_index (Staphylococcus aureus [39]): inactive; Activity_index (Pseudomonas aeruginosa [40]): inactive; Activity_index (Escherichia coli [41]): inactive; Activity_index (Escherichia coli [42]): inactive; Activity_index (Escherichia coli [43]): inactive
(1,10-Phenanthroline) trimethylstannyl 2-(4-methoxy-2-nitrophenylcarbamoyl)benzoate	55.5	52.4	47.1	44	52.7	58.4	57.9	56.2	27.7 mm	15 mm	inactive	5.66 mm	20	11.3 mm	20.7 mm	–	2.5	2.5	3.34	Dose-dependent effect	Activity index (Klebsiella pneumoniae [33]): 1.98; Activity index (Klebsiella pneumoniae [34]): 4.61; Activity index (Klebsiella pneumoniae [35]): 4.61; Activity_index [44]: inactive; Activity_index [45]: inactive; Activity index (Pseudomonas aeruginosa [26]): 1.89; Activity index (Pseudomonas aeruginosa [27]): 1.89; Activity index (Pseudomonas aeruginosa [28]): 1.89; Activity index (Escherichia coli [29]): 10.3; K (DNA [30]): 2.5 ×10⁴ /M; Activity (DNA [32]): < 3 nm
